{
  "source": "patent US20250276068A1",
  "about": "“PHARMACEUTICAL COMPOSITIONS OF POLYPEPTIDE CONJUGATES AND METHODS OF USES THEREOF” (BEIJING QL BIOPHARMACEUTICAL CO., LTD., priority 2022, published 2025)",
  "molecules": {"B1": {"name": "Molecule 002 (peptide)", "peptide": "H[Aib]EGTFTSDVSSYLEGQAAREFIAWLVRGGGGAQPGAQPGAQPGAQPGAQPGAQPGAQPGAQPGAQPGQK([AEEA-AEEA-γGlu-C18 diacid])P", "notes": "Mono-acylated GLP-1 polypeptide conjugate; also called 1006"}, "B2": {"name": "Molecule 012 (peptide)", "peptide": "H[Aib]EGTFTSDVSSYLEEQAAK([AEEA-AEEA-γGlu-C18 diacid])EFIAWLVRGGGGAQPGAQPGAQPGAQPGAQPGAQPGAQPGAQPGAQPGQK([AEEA-AEEA-γGlu-C18 diacid])P", "notes": "Double-acylated GLP-1 polypeptide conjugate"}, "B3": {"name": "Molecule 019 (peptide)", "peptide": "H[Aib]EGTFTSDVSSYLEEQAAREFIAWLVRGGGGAQPGAQPGAQPGAQPGAQPGAQPGAQPGAQPGAQPGQK([AEEA-AEEA-γGlu-C18 diacid])P", "notes": "Mono-acylated GLP-1 polypeptide conjugate; also called 1023"}},
  "key": {"human serum albumin [1]": {"target": "human serum albumin (Homo sapiens, UniProt P02768)", "assay": "Human serum albumin binding by surface plasmon resonance (Biacore 8K)", "conditions": "human serum albumin on CM5 chip, SPR", "quoted_text": "Method: Binding of molecules to serum albumin was characterized by surface plasmon resonance in a Biacore 8K instrument. Serum albumin from different species was covalently bound to CM5 sensor chips surface until 4000 RU was reached. The chip was blocked by 1M ethanolamine with flowrate of 10 μL/min for 420 s. Each molecule sample was diluted and injected at a flow rate of 30 μL/min to allow for binding to chip-bound albumin for 120 s and for dissociation for 300 s. Binding buffer without molecule was sent over the chip at the flow rate of 20 seconds to allow spontaneous dissociation of bound molecule for 30 seconds."}, "db/db mice": {"system": "db/db mice", "assay": "Non-fasting glucose in db/db mice after single s.c. dose", "type": "in vivo", "description": "Method: 10 weeks old male db/db mice were injected subcutaneously with GLP-1 polypeptide conjugate once. […] Delta blood glucose is glucose subtracted by baseline level. […] The area under the curve for delta blood glucose from 0 until 192 hours (AUCΔBG 0-192h) was calculated."}, "C57BL/6 mice": {"system": "C57BL/6 mice", "assay": "Body weight loss in C57 lean mice after single s.c. dose", "type": "in vivo", "conditions": "30 nmol/kg s.c. once", "description": "Method: 10 week old male C57BL/6 mice were injected subcutaneously with protein once on Day1. Body weight was measured daily and five animals were used for each treatment group. Body weight was monitored for each individual animal. % BW loss=100*(BW on Day n−BW on Day 1)/(BW on Day 1). […] The area under the curve for body weight loss (%) from 0 until 8 days (AUG ΔBW 0-8d) was calculated."}, "GLP-1 receptor": {"target": "GLP-1 receptor (Homo sapiens, UniProt P43220)", "sequence (P43220 24-463, species assumed)": "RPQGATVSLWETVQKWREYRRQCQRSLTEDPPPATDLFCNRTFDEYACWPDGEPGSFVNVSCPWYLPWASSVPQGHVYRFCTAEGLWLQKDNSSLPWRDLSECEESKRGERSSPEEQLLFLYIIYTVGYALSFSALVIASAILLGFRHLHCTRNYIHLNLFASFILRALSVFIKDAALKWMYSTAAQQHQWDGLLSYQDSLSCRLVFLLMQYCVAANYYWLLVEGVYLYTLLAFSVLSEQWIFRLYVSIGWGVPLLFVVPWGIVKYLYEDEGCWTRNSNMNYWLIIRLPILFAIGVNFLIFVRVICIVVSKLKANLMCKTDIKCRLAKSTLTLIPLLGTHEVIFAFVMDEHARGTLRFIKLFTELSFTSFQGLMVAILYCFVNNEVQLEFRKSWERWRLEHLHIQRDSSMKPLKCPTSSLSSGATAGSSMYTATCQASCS", "conditions": "J. Med. Chem. 2015, 58, 7370-7380; cited from earlier work"}, "human serum albumin [2]": {"target": "T1, human serum albumin (human, UniProt P02768 25-609)", "T1 construct": "also called HSA", "assay": "SPR (Biacore 8K), albumin on CM5 chip"}},
  "note": "*1 amine or outer side, *2 acyl side, *3 side chain or, on linkers, in order; H or OH if unused. Side-chain parts run from the residue outwards. [ ]: non-standard residue; d: D form. The star is where a group is joined. C18 diacid = O=C(O)CCCCCCCCCCCCCCCCC(=O)*; γGlu = O=C(O)[C@H](CCC(=O)[*:2])N[*:1]; AEEA = NCCOCCOCC(=O)O; Aib = CC(C)(N)C(=O)O",
  "data": [
    {"molecule": "semaglutide", "values": [
      {"measurement": "Rmax (RU)", "setting": "human serum albumin [1]", "result": 55.2, "unit": "RU"},
      {"measurement": "AUC ΔBG 0-192 h", "setting": "db/db mice; 3 nmol/kg s.c. once", "result": -317.0, "unit": "mmol·h/L"},
      {"measurement": "AUC ΔBG 0-192 h", "setting": "db/db mice; 10 nmol/kg s.c. once", "result": -583.4, "unit": "mmol·h/L"},
      {"measurement": "AUC ΔBG 0-192 h", "setting": "db/db mice; 30 nmol/kg s.c. once", "result": -527.1, "unit": "mmol·h/L"},
      {"measurement": "AUC ΔBW 0-8 d (day*%)", "setting": "C57BL/6 mice; Study 1 (FIG. 1A)", "result": "−9.3", "unit": "day*%"},
      {"measurement": "AUC ΔBW 0-8 d (day*%)", "setting": "C57BL/6 mice; Study 2 (FIG. 1B)", "result": "−13.2", "unit": "day*%"},
      {"measurement": "loss in GLP-1 receptor binding in presence of human serum albumin (HSA) relative to its unconjugated counterpart", "setting": "GLP-1 receptor", "result": 939, "unit": "fold"}
    ]},
    {"molecule": "B1", "values": [
      {"measurement": "binding result", "setting": "human serum albumin [2]", "result": "binds"}
    ]},
    {"molecule": "B2", "values": [
      {"measurement": "binding result", "setting": "human serum albumin [2]", "result": "binds"}
    ]},
    {"molecule": "B3", "values": [
      {"measurement": "binding result", "setting": "human serum albumin [2]", "result": "binds"}
    ]}
  ]
}
